The values that follow come from article PMC7717712, “The effects of cardiac drugs on human erythrocyte carbonic anhydrase I and II isozymes” (Journal of Enzyme Inhibition and Medicinal Chemistry, 2020).

Data set [1] concerns the target T1, human carbonic anhydrase I (hCA I) (Homo sapiens, UniProt P00915).
T1 construct: from tissue
Briefly: CO2 hydratase activity assay (Maren method), hCA I. Type of data set: biochemical. The note with it: hydratase method; enzyme purified from human erythrocytes; read-out: IC50 (hydratase) hCA I. The method, then:
(§1) Blood samples (25 ml) from healthy human volunteers were collected. They were centrifuged at 1000g for 20 min at 4 °C, and the supernatant was removed. The packed erythrocytes were washed three times with 0.9% NaCl and then were hemolyzed in cold water. The pH of the hemolysate was adjusted to 8.5 with the solid Tris base. The 25-ml hemolysate was applied to an affinity column containing y Sepharose 4B-ethylene diamine-4-isothiocyanato-benzenesulfonamide[14]. CA isozymes were then eluted with 0.1 M NaCl/25 mM Na2HPO4 (pH 6.3) and 0.1 M CH3COONa/0.5 M NaClO4 (pH 5.6), which recovered hCA I and II, respectively.
(§2) CA activity was measured by the Maren method based on the determination of the time required for the pH to decrease from 10.0 to 7.4 due to CO2 hydration. The assay solution was 0.5 M Na2CO3/0.1 M NaHCO3 (pH 10.0), and phenol red was added as the pH indicator. Carbon dioxide-hydratase activity was calculated in enzyme units (EU) with the following equation: t0 – tc/tc, where t0 and tc are the times for the pH change of the nonenzymatic and the enzymatic reactions, respectively.
(§3) The drugs were triturated in a porcelain mortar pestle. Stock solutions of both drugs were prepared in dimethyl sulfoxide (DMSO). Different concentrations of the drugs were added to the enzyme activity determination medium with a total volume of 4.2 ml. The duration (in seconds) of the colour change from red to yellow in solution was measured in a 10-ml glass tube with a diameter of 1 cm. Control cuvette activity in the absence of the inhibitor was set at 100%. All compounds were tested in triplicate at each concentration used. For each inhibitor, an activity %–[inhibitor] graph was drawn (data not shown).

The target of data set [2] is T2, human carbonic anhydrase II (hCA II) (Homo sapiens, UniProt P00918).
T2 construct: from tissue
Kind of data set: CO2 hydratase activity assay (Maren method), hCA II. The note with it: hydratase method; enzyme purified from human erythrocytes; read-out: IC50 (hydratase) hCA II. Type of data set: biochemical. The method, then: as §1, §2, §3

The target of data set [3] is T1, human carbonic anhydrase I (hCA I). Briefly: Esterase activity assay (4-nitrophenyl-acetate), hCA I. Type of data set: biochemical. To be noted: esterase method, 4-nitrophenyl-acetate, 348 nm, 25 °C; read-out: IC50 (esterase) hCA I. Here is the method: (§4) Blood samples (25 ml) from healthy human volunteers were collected. They were centrifuged at 1000g for 20 min at 4 °C, and the supernatant was removed. The packed erythrocytes were washed three times with 0.9% NaCl and then were hemolyzed in cold water. The pH of the hemolysate was adjusted to 8.5 with the solid Tris base. The 25-ml hemolysate was applied to an affinity column containing y Sepharose 4B-ethylene diamine-4-isothiocyanato-benzenesulfonamide[14].
(§5) The inhibitory effects of the drugs on enzyme activities were tested under in vitro conditions.

The target of data set [4] is T2, human carbonic anhydrase II (hCA II). Kind of data set: Esterase activity assay (4-nitrophenyl-acetate), hCA II. It is filed as biochemical. To be noted: esterase method, 4-nitrophenyl-acetate, 348 nm, 25 °C; read-out: IC50 (esterase) hCA II. The method, then: as §4, §5
In a further data set the test system is CYP3A4. The arrangement: method as in earlier work. The note with it: concentration-dependent; read-out: IC50, CYP3A4 enzyme activity; cited from earlier work.
Data set [5] concerns 15 hCA isoforms (hCA I–XIV). The note with it: cited from earlier work.
For data set [6], the target named is glucose-6-phosphate dehydrogenase. Details: method as in PMID 29947262. The note with it: cited from earlier work.
Another data set concerns aldehyde oxidase. The arrangement: method as in PMID 14681337. The note with it: read-out: aldehyde oxidase inhibition (concentration printed without endpoint name); cited from earlier work.

T1 sequence (P00915 whole entry): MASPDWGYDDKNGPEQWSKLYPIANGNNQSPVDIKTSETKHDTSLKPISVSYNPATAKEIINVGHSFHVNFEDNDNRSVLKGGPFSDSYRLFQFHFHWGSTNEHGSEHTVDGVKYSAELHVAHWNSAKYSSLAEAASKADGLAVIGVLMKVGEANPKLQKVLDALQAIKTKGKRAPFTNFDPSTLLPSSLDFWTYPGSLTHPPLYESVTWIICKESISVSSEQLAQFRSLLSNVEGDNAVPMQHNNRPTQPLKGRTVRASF

Consider `CC(C)c1c(C(=O)Nc2ccccc2)c(-c2ccccc2)c(-c2ccc(F)cc2)n1CC[C@@H](O)C[C@@H](O)CC(=O)O` [Atorvastatin], for which the IC50 was 243 µM in data set [1]; 390 µM in data set [2]; 7.75 µM in data set [3]; 9.85 µM in data set [4]; […] in the data set with CYP3A4. In data set [5], the “inhibition of the 15 hCA isoforms (hCA I–XIV)” value is reported as “submicromolar–low nanomolar inhibition”.

Take `NS(=O)(=O)c1cc(C(=O)O)c(NCc2ccco2)cc1Cl` [Furosemide]: the IC50 in data set [6] was 526 µM.

Turning to `CCOC(=O)C1=C(COCCN)NC(C)=C(C(=O)OC)C1c1ccccc1Cl` (stereo not drawn) [Amlodipine], the IC50 in data set [1] was 133 µM; in data set [2], 126 µM; in data set [3] it was 38.5 µM; in data set [4], 38.8 µM; in the data set on aldehyde oxidase, 5.5 µM.
